Results taken from patent US6251943A, “Method of treating or preventing septic shock by administering a MEK inhibitor” (Warner-Lambert Company, priority 1999, dated 2001).

These compounds were tested against MEK (Homo sapiens, UniProt Q02750) (assay: In vitro MEK inhibition (cascade assay for inhibitors of the MAP kinase pathway / in vitro MEK assay)). Conditions: Table 1.
Format: biochemical
Method: Incorporation of ^32 P into myelin basic protein (MBP) was assayed in the presence of a glutathione S-transferase fusion protein containing p44MAP kinase (GST-MAPK) and a glutathione S-transferase fusion protein containing p45MEK (GST-MEK). The assay solution contained 20 mM HEPES, pH 7.4, 10 MM MgCl2, 1 mM MnCl2, 1 mM EGTA, 50 μM [γ-^32 P]ATP, 10 μg GST-MEK, 0.5 μg GST-MAPK and 40 μg MBP in a final volume of 100 μL. […] Compounds were assessed at 10 μM for ability to inhibit incorporation of ^32 P.
To ascertain whether compounds were inhibiting GST-MEK or GST MAPK, two additional protocols were employed. In the first protocol, compounds were added to tubes containing GST-MEK, followed by addition of GST-MAPK, MBP and [γ-^32 P]ATP. In the second protocol, compounds were added to tubes containing both GST-MEK and GST-MAPK, followed by MBP and [γ-^32 P]ATP.
For evaluation of direct MEK activity, 10 μg GST-MEK1 was incubated with 5 μg of a glutathione S-transferase fusion protein containing p44MAP kinase with a lysine to alanine mutation at position 71 (GST-MAPK-KA). This mutation eliminates kinase activity of MAPK, so only kinase activity attributed to the added MEK remains. Incubations were 15 minutes at 30° C in a final volume of 50 μL containing 50 mM Tris (pH 7.5), […], […], and 10 μM [γ-^32 P]ATP. The reaction was stopped by addition of Laenunli SDS sample buffer and phosphorylated GST-MAPK-KA was resolved by electrophoresis on a 10% polyacrylamide gel. Radioactivity incorporated into GST-MAPK-KA was determined by autoradiography, and subsequently by excision of the bands followed by scintillation counting. […] When these sites are phosphorylated, MEK activity is increased. Phosphorylation of these sites can be mimicked by mutation of the serine residues to glutamate. For this assay, 5 μg GST-MEK-2E was incubated with 5 μg GST-MAPK-KA for 15 minutes at 30° C. in the same reaction buffer as described above. Reactions were terminated and analyzed as above.

Sequence of MEK (Q02750 whole entry): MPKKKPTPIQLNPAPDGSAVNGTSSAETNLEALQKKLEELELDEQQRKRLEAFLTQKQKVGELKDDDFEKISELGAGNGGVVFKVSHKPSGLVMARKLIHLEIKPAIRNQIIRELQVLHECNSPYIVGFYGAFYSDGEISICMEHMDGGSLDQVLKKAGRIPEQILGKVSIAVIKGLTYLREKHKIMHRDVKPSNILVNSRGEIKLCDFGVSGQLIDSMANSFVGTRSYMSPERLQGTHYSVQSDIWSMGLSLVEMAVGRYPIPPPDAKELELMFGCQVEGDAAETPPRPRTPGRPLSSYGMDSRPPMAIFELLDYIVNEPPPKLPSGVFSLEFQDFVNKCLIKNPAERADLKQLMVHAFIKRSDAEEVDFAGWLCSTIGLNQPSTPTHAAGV

IC50 [µM]	Structure (SMILES)
> 1	CCN(CC)C(=O)c1ccc(F)cc1Nc1ccc(I)cc1C [Example 43, N,N-Diethyl-4-fluoro-2-(4-iodo-2-methyl-phenylamino)-benzamide]
105	Cc1cc(I)ccc1Nc1cc([N+](=O)[O-])ccc1C(=O)O [Example 30, 2-(4-Iodo-2-methyl-phenylamino)-4-nitro-benzoic acid]
12.8	Cc1cc(I)ccc1Nc1ccc([N+](=O)[O-])cc1C(=O)NCCO [Example 195, N-(2-Hydroxy-ethyl)-2-(4-iodo-2-methyl-phenylamino)-5-nitro-benzamide]
0.555	Cc1cc(I)ccc1Nc1ccc(F)cc1C(=O)NOCc1ccccc1 [Example 186, N-Benzyloxy-5-fluoro-2-(4-iodo-2-methyl-phenylamino)-benzamide]

Same assay, conditions: Table 2

IC50 [µM]	Structure (SMILES)
0.072	Cc1cc(Br)ccc1Nc1cc(F)ccc1C(=O)NO [Example 3a, 2-(4-bromo-2-methyl-phenylamino)-4-fluoro-N-hydroxy-benzamide]
0.28	Cc1cc(I)ccc1Nc1cc(F)ccc1C(=O)NOCc1ccccc1 [Example 77a, 4-Fluoro-2-(4-iodo-2-methyl-phenylamino)-N-phenylmethoxy-benzamide]
0.334	Cc1cc(Cl)ccc1Nc1cc(F)ccc1C(=O)NO [Example 11a, 4-Fluoro-N-hydroxy-2-(4-cluoro-2-methyl-phenylamino)-benzamide]
0.018	Cc1cc(I)ccc1Nc1c(C(=O)NOCC2CC2)cc(Br)c(F)c1F [Example 58a, 5-Bromo-N-cyclopropylmethoxy-3,4-difluoro-2-(4-iodo-2-methyl-phenylamino)]

These compounds were tested on MAP kinase (assay: "In Vivo" activity (whole cell MAP kinase assay)). Conditions: Table 2.
Format: cell-based
Method: To determine if compounds were able to block activation of MAP kinase in whole cells, the following protocol was used: Cells were plated in multi-well plates and grown to confluence. Cells were then serum-deprived overnight. Cells were exposed to the desired concentrations of compound or vehicle (DMSO) for 30 minutes, followed by addition of a growth factor, for example, PDGF (100 ng/mL). After a 5-minute treatment with the growth factor, cells were washed with PBS, then lysed in a buffer consisting of 70 mM NaCl, 10 mM HEPES (pH 7.4), 50 mM glycerol phosphate, and 1% Triton X-100. Lysates were clarified by centrifugation at 13,000×g for 10 minutes. Five micrograms of the resulting supernatants were incubated with […] microtubule associated protein-2 (Map2) for 15 minutes at 30° C. in a final volume of 25 μL containing 50 mM Tris (pH 7.4), 10 mM MgCl2, 2 mM EGTA and 30 μM [γ-^32 P]ATP. Reactions were terminated by addition of Laemmli sample buffer. Phosphorylated Map2 was resolved on 7.5% acrylamide gels and incorporated radioactivity determined by autoradiography and subsequent excision of the bands followed by scintillation counting.
The in vitro and in vivo biological activity of several representative compounds of Formula I and II in the foregoing assays is presented in Tables 1 and 2.

IC50 [µM]	Structure (SMILES)
0.125	CCONC(=O)c1ccc(F)c(F)c1Nc1ccc(I)cc1C [Example 40a, N-Ethoxy-3,4-difluoro-2-(4-iodo-2-methyl-phenylamino)-benzamide]
0.39	C#CCONC(=O)c1ccc(F)c(F)c1Nc1ccc(I)cc1C [Example 71a, 3,4-Difluoro-2-(4-iodo-2-methyl-phenylamino)-N-(prop-2-ynyloxy)-benzamide]
0.1	CCCONC(=O)c1ccc(F)c(F)c1Nc1ccc(I)cc1C [Example 43a, 3,4-Difluoro-2-(4-iodo-2-methyl-phenylamino)-N-propoxy-benzamide]
0.05	Cc1cc(I)ccc1Nc1cc(F)ccc1C(=O)NO [Example 1a, 4-Fluoro-N-hydroxy-2-(4-iodo-2-methyl-phenylamino)-benzamide]
3	Cc1cc(Br)ccc1Nc1cc(F)ccc1C(=O)NO [Example 3a, 2-(4-bromo-2-methyl-phenylamino)-4-fluoro-N-hydroxy-benzamide]
1.5	Cc1cc(I)ccc1Nc1c(C(=O)NOCC#Cc2cccc(F)c2)ccc(F)c1F [Example 34a, 3,4-Difluoro-N-[3-(3-fluoro-phenyl)-prop-2-ynyloxy]-2-(4-iodo-2-methyl-phenylamino)-benzamide]
< 30	CONC(=O)c1cc(Cl)ccc1Nc1ccc(I)cc1C [Example 7a, 5-Chloro-2-(4-iodo-2-methyl-phenylamino)-N-methoxybenzamide]
0.03	Cc1cc(I)ccc1Nc1c(C(=O)NO)cc(Br)c(F)c1F [Example 2a, 5-Bromo-3,4-difluoro-N-hydroxy-2-(4-iodo-2-methyl-phenylamino)-benzamide]
0.17	Cc1cc(I)ccc1Nc1cc(F)ccc1C(=O)NOCc1ccoc1 [Example 20a, 4-Fluoro-N-(furan-3-ylmethoxy)-2-(4-iodo-2-methyl-phenylamino)-benzamide]
0.22	Cc1cc(I)ccc1Nc1c(C(=O)NOC2CCC2)ccc(F)c1F [Example 50a, N-Cyclobutyloxy-3,4-difluoro-2-(4-iodo-2-methyl-phenylamino)-benzamide]
1	Cc1cc(I)ccc1Nc1ccc(Cl)cc1C(=O)NO [Example 4a, 5-Chloro-N-hydroxy-2-(4-iodo-2-methyl-phenylamino)-benzamide]
> 2	CONC(=O)c1ccc(F)c(F)c1Nc1ccc(I)cc1C [Example 14a, 3,4-Difluoro-2-(4-iodo-2-methyl-phenylamino)-N-N-methoxy-benzamide]
0.73	C#CCCONC(=O)c1ccc(F)c(F)c1Nc1ccc(I)cc1C [Example 29a, N-(But-3-ynyloxy)-3,4-difluoro-2-(4-iodo-2-methyl-phenylamino)-benzamide]
0.5	Cc1cc(Cl)ccc1Nc1cc(F)ccc1C(=O)NO [Example 11a, 4-Fluoro-N-hydroxy-2-(4-cluoro-2-methyl-phenylamino)-benzamide]
0.13	Cc1cc(I)ccc1Nc1c(C(=O)NOC(C)C)ccc(F)c1F [Example 47a, 3,4-Difluoro-2-(4-iodo-2-methyl-phenylamino)-N-isopropoxy-benzamide]
0.07	Cc1cc(I)ccc1Nc1c(C(=O)NOCC#Cc2ccccc2F)ccc(F)c1F [Example 36a, 3,4-Difluoro-N-[3-(2-fluoro-phenyl)-prop-2-ynyloxy]-2-(4-iodo-2-methyl-phenylamino)-benzamide]
0.13	C=C(C)CONC(=O)c1ccc(F)c(F)c1Nc1ccc(I)cc1C [Example 66a, 3,4-Difluoro-2-(4-iodo-2-methyl-phenylamino)-N-(2-methyl-allyloxy)-benzamide]
3	Cc1cc(F)ccc1Nc1cc(F)ccc1C(=O)NO [Example 8a, 4-Fluoro-N-hydroxy-2-(4-fluoro-2-methyl-phenylamino)-benzamide]
0.12	CC=CCONC(=O)c1cc(Br)c(F)c(F)c1Nc1ccc(I)cc1C [Example 24a, 5-Bromo-N-(but-2-enyloxy)-3,4-difluoro-2-(4-iodo-2-methyl-phenylamino)-benzamide]
~30	Cc1cc(I)ccc1Nc1ccc(Cl)cc1C(=O)NOC1CCCCO1 (stereo not shown) [Example 6a, 5-Chloro-2-(4-iodo-2-methyl-phenylamino)-N-(terahydropyran-2-yloxy)benzamide]
~30	Cc1cc(I)ccc1Nc1ccc(Cl)cc1C(=O)N(C)O [Example 5a, 5-Chloro-N-hydroxy-2-(4-iodo-2-methyl-phenylamino)-N-methyl-benzamide]
0.014	Cc1cc(I)ccc1Nc1c(C(=O)NOCC2CC2)cc(Br)c(F)c1F [Example 58a, 5-Bromo-N-cyclopropylmethoxy-3,4-difluoro-2-(4-iodo-2-methyl-phenylamino)]
1	Cc1ccccc1Nc1cc(F)ccc1C(=O)NO [Example 9a, 4-Fluoro-N-hydroxy-2-(2-methylphenylamino)-benzamide]
